Experiments:
[1] = biological target: Ba/F3 EGFR L858R/T790M (LT) (Homo sapiens, UniProt P00533, T790M/L858R, cells depend on it); test: Cell growth inhibitory ability in Ba/F3 cells overexpressing EGFR L858R/T790M (MTS, CellTiter 96 AQueous); assay type: cell-based; conditions: 72 hours, MTS absorbance at 490 nm, read-out: Ba/F3 EGFR double mutant L858R/T790M, IC50
Protocol: (§1) In order to confirm that the compound represented by formula 1 provided in one aspect of the present invention acts as an allosteric inhibitor against WT and mutant of EGFR, the cell growth inhibitory effect was evaluated in BaF3 cells overexpressing WT and mutant of EGFR.
(§2) More specifically, the cell growth inhibitory ability of the compound of the present invention to the Ba/F3 cell line overexpressing WT and mutant of EGFR was evaluated using CellTiter 96 AQueous Non-Radioactive Cell Proliferation Assay system of Promega, as follows. AQueous Non-Radioactive Cell Proliferation Assay is a method of confirming cell growth inhibitory ability by measuring the degree of color development by reducing MTS (3-(4,5-Dimethylthiazol-2-yl)-5-(3-carboxymethoxyphenyl)-2-(4-sulfophenyl)-2H-tetrazolium) to Formazan by a reductase secreted by mitochondria present in living cells in a cell culture state. The Ba/F3 EGFR WT and Ba/F3 EGFR del19/T790M/C797S (DTC), Ba/F3 EGFR L858R (L), Ba/F3 EGFR L858R/T790M (LT), and Ba/F3 EGFR L858R/T790M/C797S (LTC) mutation cell lines used in the present invention were purchased from the laboratory of Professor Byung-cheol Cho, Yonsei University. All cell lines were cultured in RPMI supplemented with 10% FBS, 1% penicillin-streptomycin and 1 μg/ml of puromycine in a 5% CO2 incubator at 37° C.
(§3) The cell survival inhibitory effect of the compound according to each EGFR mutation was analyzed by the following analysis method.
(§4) BaF3 cells were distributed in a 96-well cell culture plate at the density of 2000˜10000 cells/100 μL/well, and cultured for 24 hours. Thereafter, the concentration of the compound represented by formula 1 provided in one aspect of the present invention was prepared to double the final concentrations of 0.1 nM, 1 nM, 10 nM, 100 nM, 1000 nM and 10000 nM, and the compound was treated to the plate (100 μL/well). The plate was reacted in an incubator at 37° C. for 72 hours. Then, MTS was treated to the plate (20 μL/well) and the plate was incubated at 37° C. for 2 to 4 hours. Finally, after measuring the absorbance at 490 nm using a microplate reader, the relative value compared to 0 nM (% Control) was obtained to confirm the cell growth inhibitory ability of the compound. The measured values were analyzed using Prism program (version 8.0, Graphpad Software, Inc.), and the IC50 value (Inhibition concentration 50), an indicator of the cell growth inhibitory ability of the compound, was calculated.

[2] = biological target: Ba/F3 EGFR L858R/T790M/C797S (LTC) (Homo sapiens, UniProt P00533, T790M/C797S/L858R, cells depend on it); test: Cell growth inhibitory ability in Ba/F3 cells overexpressing EGFR L858R/T790M/C797S (MTS, CellTiter 96 AQueous); assay type: cell-based; conditions: 72 hours, MTS absorbance at 490 nm, read-out: Ba/F3 EGFR triple mutant L858R/T790M/C797S, IC50
Protocol: as §1, §2, §3, §4

| Compound | GI50 [1] | GI50 [2] |
| --- | --- | --- |
| Cc1cc(C(=O)NC(c2cc3ccccc3[nH]2)c2cc(F)ccc2O)cc(-c2ccc(N3CCC(N)CC3)cc2)c1 (stereo not shown) [Example 32, 4′-(4-aminopiperidine-1-yl)-N-((5-fluoro-2-hydroxyphenyl)(1H-indole-2-yl)methyl)-5-methyl-[1,1′-biphenyl]-3-carboxamide] | < 30 nM | < 30 nM |
| Cc1cc(C(=O)N[C@@H](c2cc3ccccc3[nH]2)c2cc(F)ccc2O)cc(-c2cc(C)c(N3CCC(N)CC3)cn2)c1 [Example 33, (R)-3-(5-(4-aminopiperidine-1-yl)-4-methylpyridine-2-yl)-N-((5-fluoro-2-hydroxyphenyl)(1H-indole-2-yl)methyl)-5-methylbenzamide] | < 30 nM | < 30 nM |
| Cc1cc(C(=O)N[C@@H](c2cc3ccccc3[nH]2)c2cc(F)ccc2O)cc(-c2cnc(N3CCC(N)CC3)nc2C)c1 [Example 34, (R)-3-(2-(4-aminopiperidine-1-yl)-4-methylpyrimidine-5-yl)-N-((5-fluoro-2-hydroxyphenyl)(1H-indole-2-yl)methyl)-5-methylbenzamide] | < 30 nM | 30 to 200 nM |
| CCCC1CCN(c2cnc(-c3cc(C)cc(C(=O)N[C@@H](c4cc5ccccc5[nH]4)c4cc(F)ccc4O)c3)nc2)CC1 [Example 38, N—[(R)-(5-fluoro-2-hydroxy-phenyl)-(1H-indole-2-yl)methyl]-3-methyl-5-[5-(4-propyl-1-piperidyl)pyrimidine-2-yl]benzamide] | > 200 nM | > 200 nM |
| Cc1cc(C(=O)N[C@@H](c2cc3ccccc3[nH]2)c2cc(F)ccc2O)cc(-c2ncc(N3CCC(N(C)C)CC3)cn2)c1 [Example 39, 3-[5-[4-(dimethylamino)-1-piperidyl]pyrimidine-2-yl]-N—[(R)-(5-fluoro-2-hydroxy-phenyl)-(1H-indole-2-yl)methyl]-5-methyl-benzamide] | < 30 nM | < 30 nM |
| Cc1cc(C(=O)N[C@@H](c2cc3ccccc3[nH]2)c2cc(F)ccc2O)cc(-c2ncc(N3CCCCC3)cn2)c1 [Example 40, N—[(R)-(5-fluoro-2-hydroxy-phenyl)-(1H-indole-2-yl)methyl]-3-methyl-5-[5-(1-piperidyl)pyrimidine-2-yl]benzamide] | < 30 nM | 30 to 200 nM |
| Cc1cc(C(=O)N[C@@H](c2cc3ccccc3[nH]2)c2cc(F)ccc2O)cc(-c2ccc(CN3CCC(N(C)C)CC3)cn2)c1 [Example 42] | < 30 nM | 30 to 200 nM |
| (R)-3-(6-((4-(dimethylamino)piperidine-1-yl)methyl)pyridine-3-yl)-N-((5-fluoro-2-hydroxyphenyl)(1H-indole-2-yl))methyl)-5-methylbenzamide [Example 43] | < 30 nM | 30 to 200 nM |

The next lines start with the values.

| GI50 [1] | GI50 [2] | Compound |
| --- | --- | --- |
| > 200 nM | < 30 nM | Cc1cc(C(=O)N[C@@H](c2cc3ccccc3[nH]2)c2cc(F)ccc2O)cc(-c2ncc(N3CCN(C(=O)OC(C)(C)C)CC3)cn2)c1 [Example 35, tert-butyl (R)-4-(2-(3-(((5-fluoro-2-hydroxyphenyl)(1H-indole-2-yl)methyl)carbamoyl)-5-methylphenyl)pyrimidine-5-yl)piperazine-1-carboxylate] |
| < 30 nM | < 30 nM | Cc1cc(C(=O)N[C@@H](c2cc3ccccc3[nH]2)c2cc(F)ccc2O)cc(-c2ncc(N3CCNCC3)cn2)c1 [Example 36, (R)—N-((5-fluoro-2-hydroxyphenyl)(1H-indole-2-yl)methyl)-3-methyl-5-(5-(piperazine-1-yl)pyrimidine-2-yl)benzamide] |
| 30 to 200 nM | < 30 nM | Cc1cc(C(=O)N[C@@H](c2cc3ccccc3[nH]2)c2cc(F)ccc2O)cc(-c2ncc(N3CCN(C)CC3)cn2)c1 [Example 37, (R)—N-((5-fluoro-2-hydroxyphenyl)(1H-indole-2-yl)methyl)-3-methyl-5-(5-(4-methylpiperazine-1-yl)pyrimidine-2-yl)benzamide] |
| < 30 nM | < 30 nM | Cc1cc(C(=O)N[C@@H](c2cc3ccccc3[nH]2)c2cc(F)ccc2O)cc(-c2ncc(N3CCN(C4CCN(C)CC4)CC3)cn2)c1 [Example 41, N—[(R)-(5-fluoro-2-hydroxy-phenyl)-(1H-indole-2-yl)methyl]-3-methyl-5-[5-[4-(1-methyl-4-piperidyl)piperazine-1-yl]pyrimidine-2-yl]benzamide] |
| < 30 nM | < 30 nM | Cc1cc(C(=O)N[C@@H](c2cc3ccccc3[nH]2)c2cc(F)ccc2O)cc(-c2ncc(N3CC[C@@H](N)C3)cn2)c1 [Example 44, 3-[5-[(3R)-3-aminopyrrolidine-1-yl]pyrimidine-2-yl]-N—[(R)-(5-fluoro-2-hydroxy-phenyl)-(1H-indole-2-yl)methyl]-5-methyl-benzamide] |
| < 30 nM | < 30 nM | CCN(CC)C1CCN(c2cnc(-c3cc(C)cc(C(=O)N[C@@H](c4cc5ccccc5[nH]4)c4cc(F)ccc4O)c3)nc2)CC1 [Example 45, (R)-3-(5-(4-(diethylamino)piperidine-1-yl)pyrimidine-2-yl)-N-((5-fluoro-2-hydroxyphenyl)(1H-indole-2-yl)methyl)-5-methylbenzamide] |
